Measurements as given in patent US8580812B2, “Heteroaryl amide analogues as P2X7 antagonists” (H. Lundbeck A/S, priority 2007, dated 2013).

biological target: T1, P2X7 (Homo sapiens, UniProt Q99572); assay: High Throughput P2X7 Calcium Mobilization Assay (Example 4A), antagonist activity; type: cell-based; conditions: SH-SY5Y cells, 50% decrease in fluorescence response of cells exposed to 80 μM BzATP
T1 construct: host or cells: SH-SY5Y
T1 sequence (Q99572 1-595): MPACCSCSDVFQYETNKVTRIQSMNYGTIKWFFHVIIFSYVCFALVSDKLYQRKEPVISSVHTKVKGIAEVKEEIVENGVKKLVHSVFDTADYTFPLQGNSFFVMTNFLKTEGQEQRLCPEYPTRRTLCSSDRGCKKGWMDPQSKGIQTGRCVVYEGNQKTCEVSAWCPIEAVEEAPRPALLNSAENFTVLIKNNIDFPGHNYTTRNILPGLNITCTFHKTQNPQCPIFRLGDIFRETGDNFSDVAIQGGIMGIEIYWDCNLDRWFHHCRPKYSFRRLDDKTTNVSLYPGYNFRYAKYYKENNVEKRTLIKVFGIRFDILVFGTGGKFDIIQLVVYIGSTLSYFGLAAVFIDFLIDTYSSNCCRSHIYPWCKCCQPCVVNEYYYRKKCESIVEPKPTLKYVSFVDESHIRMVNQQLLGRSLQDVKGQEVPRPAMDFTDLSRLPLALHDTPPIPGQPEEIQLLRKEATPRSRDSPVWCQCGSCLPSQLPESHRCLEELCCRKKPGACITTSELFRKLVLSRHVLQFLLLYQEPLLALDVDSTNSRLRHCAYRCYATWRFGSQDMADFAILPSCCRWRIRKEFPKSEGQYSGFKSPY
Description: A. High Throughput P2X7 Calcium Mobilization Assay
SH-SY5Y cells, ATCC Number CRL-2266, (American Type Culture Collection, Manassas, Va.) are cultured under DMEM/High medium supplemented with 10% FBS, and 10 mM HEPES (Invitrogen Corp., Carlsbad, Calif.) in 5% CO2 and at 37° C. One day prior to the experiment, cells are plated at a density of 100,000 cells/well in a 96 well black/clear TC plate (Corning® Costar®, Sigma-Aldrich Co., St. Louis, Mo.). At the beginning of the experiment, the culture medium is removed and cells are incubated with 50 μL of 2.3 μM Fluo-4 AM dye (Invitrogen Corp.) in the assay solution (5 mM KCl, 9.6 mM NaH2PO4.H2O, 25 mM HEPES, 280 mM Sucrose, 5 mM Glucose, and 0.5 mM CaCl2; pH is adjusted to 7.4 with NaOH) for an hour at 37° C. After one hour dye incubation, wells are rinsed once with 50 μL assay solution, and are then incubated for an hour at room temperature with 100 μL assay solution containing the test compound. The final concentration of test compound generally ranges from 1 to 2500 nM; for positive control cells, no test compound is added. After the one hour incubation, plates are transferred to a FLIPR^TETRA instrument (Molecular Devices, Sunnyvale, Calif.) for calcium mobilization analysis.
For determination of antagonist activity, 50 μL of P2X7 agonist (2′(3′)-O-(4-benzoyl-benzoyl)adenosine 5′-triphosephate (BzATP; Sigma-Aldrich) in the assay solution is transferred using the FLIPR into the plate, such that the final agonist concentration is 80 μM (about EC50). In negative control cells, 50 μL of assay solution without agonist is added at this stage. The peak fluorescence signal over a 2 minute period is then measured.
First, the average maximum relative fluorescent unit (RFU) response from the negative control wells (no agonist) is subtracted from the maximum response detected for each of the other experimental wells. Second, average maximum RFU response is calculated for the positive control wells (agonist wells). Then, percent inhibition for each compound tested is calculated using the equation: Percent Inhibition=100−100×(Peak Signal in Test Cells/Peak Signal in Control Cells) The % inhibition data is plotted as a function of test compound concentration and test compound IC50 is determined using, for example, KALEIDAGRAPH software (Synergy Software, Reading, Pa.) best fit of the data to the equation: y=m1*(1/(1+(m2/m0)^m3)) where y is the percent inhibition, m0 is […], m1 is the maximum RFU, m2 corresponds to the test compound IC50 (the concentration required to provide a 50% decrease, relative to the response observed in the presence of agonist and without antagonist) and m3 is the Hill coefficient.

IC50, ≤ 2000 nM:
COCCCNC(=O)c1cc2c(C(=O)NCC34CC5CC(CC(C5)C3)C4)cccn2n1 [Compound 38, 4-N-(adamantan-1-ylmethyl)-2-N-(3-methoxypropyl)pyrazolo [1,5-a]pyridine-2,4-dicarboxamide]
CN(C(=O)c1cc2c(C(=O)NCC34CC5CC(CC(C5)C3)C4)cccn2n1)c1ccncc1 [Compound 39, 4-N-(adamantan-1-ylmethyl)-2-N-methyl-2-N-pyridin-4-ylpyrazolo[1,5-a]pyridine-2,4-dicarboxamide]
O=C1CC2(CCN(C(=O)c3cc4c(C(=O)NCC56CC7CC(CC(C7)C5)C6)cccn4n3)CC2)CN1 [Compound 40, N-(adamantan-1-ylmethyl)-2-[(3-oxo-2,8-diazaspiro[4.5]dec-8-yl)carbonyl]pyrazolo [1,5-a]pyridine-4-carboxamide]
CCOC(=O)CNC(=O)c1cc2c(C(=O)NCC34CC5CC(CC(C5)C3)C4)cccn2n1 [Compound 41, ethyl N-({4-[(adamantan-1-ylmethyl)carbamoyl]pyrazolo[1,5-a]pyridin-2-yl}carbonyl)glycinate]
COCCNC(=O)c1cc2c(C(=O)NCC34CC5CC(CC(C5)C3)C4)cccn2n1 [Compound 42, 4-N-(adamantan-1-ylmethyl)-2-N-(2-methoxyethyl)pyrazolo [1,5-a]pyridine-2,4-dicarboxamide]
CC(C)CC(CNC(=O)c1cccn2nc(C(=O)N3CCC[C@@H](N)C3)cc12)c1ccccc1 (stereo partly drawn) [Compound 43, 2-{[(3R)-3-aminopiperidin-1-yl]carbonyl}-N-(4-methyl-2-phenylpentyl)pyrazolo [1,5-a]pyridine-4-carboxamide]
CC(C)CC(CNC(=O)c1cccn2nc(C(=O)N3CC[C@@H](N)C3)cc12)c1ccccc1 (stereo partly drawn) [Compound 45, 2-{[(3R)-3-aminopyrrolidin-1-yl]carbonyl}-N-(4-methyl-2-phenylpentyl)pyrazolo [1,5-a]pyridine-4-carboxamide]
CN[C@@H]1CCN(C(=O)c2cc3c(C(=O)NCC45CC6CC(CC(C6)C4)C5)cccn3n2)C1 [Compound 46, N-(adamantan-1-ylmethyl)-2-{[(3R)-3-(methylamino)pyrrolidin-1-yl]carbonyl}pyrazolo [1,5-a]pyridine-4-carboxamide]
CCN[C@@H]1CCN(C(=O)c2cc3c(C(=O)NCC45CC6CC(CC(C6)C4)C5)cccn3n2)C1 [Compound 47, N-(adamantan-1-ylmethyl)-2-{[(3R)-3-(ethylamino)pyrrolidin-1-yl]carbonyl}pyrazolo [1,5-a]pyridine-4-carboxamide]
CN(Cc1cnccn1)C(=O)c1cc2c(C(=O)NCC34CC5CC(CC(C5)C3)C4)cccn2n1 [Compound 48, 4-N-(adamantan-1-ylmethyl)-2-N-methyl-2-N-(pyrazin-2-ylmethyl)pyrazolo[1,5-a]pyridine-2,4-dicarboxamide]
CN(Cc1cnn(C)c1)C(=O)c1cc2c(C(=O)NCC34CC5CC(CC(C5)C3)C4)cccn2n1 [Compound 49, 4-N-(adamantan-1-ylmethyl)-2-N-methyl-2-N-[(1-methyl-1H-pyrazol-4-yl)methyl]pyrazolo[1,5-a]pyridine-2,4-dicarboxamide]
CN(Cc1ccccn1)C(=O)c1cc2c(C(=O)NCC34CC5CC(CC(C5)C3)C4)cccn2n1 [Compound 50, 4-N-(adamantan-1-ylmethyl)-2-N-methyl-2-N-(pyridin-2-ylmethyl)pyrazolo[1,5-a]pyridine-2,4-dicarboxamide]
O=C(NCc1ccccn1)c1cc2c(C(=O)NCC34CC5CC(CC(C5)C3)C4)cccn2n1 [Compound 51, 4-N-(adamantan-1-ylmethyl)-2-N-(pyridin-2-ylmethyl)pyrazolo[1,5-a]pyridine-2,4-dicarboxamide]
O=C(NCC12CC3CC(CC(C3)C1)C2)c1cccn2nc(CN3CCn4cncc4C3)cc12 [Compound 52, N-(adamantan-1-ylmethyl)-2-(5,6-dihydroimidazo[1,5-a]pyrazin-7(8H)-ylmethyl)pyrazolo[1,5-a]pyridine-4-carboxamide]
